This is an account of results in patent US20260078114A1, “COMPOUND USED AS INHIBITOR OF CDK4 KINASE AND USE THEREOF” (TYK MEDICINES, INC., priority 2022, published 2026).

One may read the IC50 as the concentration at which inhibition is half-maximal. What is called AUC(0-t) is the area under the concentration-time curve up to a stated or last time point. Broadly, the Cmax is the peak of the concentration-time curve. What is called Tmax is the time at which the peak concentration occurs.

For data set [1], the system named is ovarian cancer cell A2780. Briefly: Cellular antiproliferative assay (MTT, 5 days), A2780. As to conditions: Homo sapiens, 120 h, A2780 cells, 5 days incubation. It is filed as cell-based, human. An outline of the steps: (§1)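 MTT read-out at 570 nm after 3 h MTT incubation and isopropanol/HCl/NP-40 solubilisation; cells seeded at 50,000 cells/ml in DMEM with 10% FBS, 37 °C, 5% CO2, compound exposure 5 days. Viability calculated relative to 0.1% DMSO control and blank medium.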

Data set [2] has as its system Human breast cancer cell MCF-7. In words: Cellular antiproliferative assay (MTT, 5 days), MCF-7. The format is cell-based. As to conditions: Homo sapiens, MCF7, 120 h, MCF-7 cells, 5 days incubation. An outline of the steps:
as §1

The subject of data set [3] is human mantle cell lymphoma cell JEKO-1. Briefly: Cellular antiproliferative assay (MTT, 5 days), JEKO-1. It is filed as cell-based. As to conditions: Homo sapiens, 120 h, JEKO-1 cells, 5 days incubation. An outline of the steps: as §1
The target in a further data set is CDK6/CyclinD3 (Homo sapiens, UniProt Q00534). Briefly: Kinase activity test (mobility shift assay, EZ Reader), CDK6. As to conditions: CDK6/CyclinD3 5.00 nM, ATP 350 μM, FL-Peptide34. It is filed as biochemical.
A further data set deals with CDK4/CycD1 (Homo sapiens, UniProt P11802). In words: Kinase activity test (mobility shift assay, EZ Reader), CDK4.
A short description of data set [4]: Preclinical rat pharmacokinetic test. It is filed as in vivo. As to conditions: male SD rats, gavage (p.o.), 10 mg/kg, plasma. As for the experimental part:
Healthy adult SD rats, male, 6-8 weeks old, weighing 200-300 g. EDTA-Na2 anticoagulant. Analytical balance, animal weight scale, magnetic stirrer, freezing centrifuge, single-channel manual pipette. About 10 mg of the sample to be tested was precisely weighed, the converted 5% DMSO was added to dissolve, and then 10 percent solutol HS-15 and 85% saline were added, ultrasonic treatment was performed, vortex mixed, to obtain the solution having a concentration of 1 mg/mL; freshly prepared before use. Animals were kept in rat cages and fasted (not less than 10 h) the day before the test, but not water fasted; on the day of the test, they were weighed and labeled at the tail. Blank blood was collected before drug administration. Blood was collected from the tail vein. • Route of administration: gavage (p.o.). • Dose: 10 mg/kg • Administration volume: 10 mL/kg • Operation procedure: Hold the rat with the left hand with anti-biting gloves, made it stand upright, extent the 16-gauge gavage needle from the throat in the mouth, and then injected the drug into the stomach when there was no obvious resistance. Before and 0.5 […] and 24 h after the administration of the drug, 0.1 ml of whole blood from the test animal was collected in EDTA-Na2 anticoagulant tubes, which was mixed upside down for 3-4 times and then centrifuged at 10,000 g for 5 min at 4° C. to isolate the plasma, which was stored at -80° C. for testing. Blood was collected from the tail vein. […] Pipetted 25 μL of rat blank plasma in a centrifuge tube respectively, added 25 μL of prepared standard series solution (prepared in methanol), then added 200 μL of internal standard solution (prepared in methanol), vortexed and mixed for 2 min, centrifuged at 4° C., 10,000 g for 10 min. Unknown plasma samples treatment: 25 μL of rat plasma containing drug was aspirated, 25 μL of methanol and 200 μL of internal standard solution were added sequentially, vortexed and mixed for 2 min, and then centrifuged at 4° C. and 10,000 g for 10 min. The supernatant was extracted for LC/MS/MS detection. Shimadzu liquid phase and Triple Quad TM 6500+AB mass spectrometry were utilized to establish a quantitative assay for the compounds to be tested. The pro-drug concentration in plasma was determined. The blood drug concentration-time curves were plotted, and the main pharmacokinetic parameters were calculated using the non-compartment model in winnonlin Phoenix software, and the detailed data were shown in Table 3.

CDK6/CyclinD3, sequence (Q00534 whole entry, species assumed): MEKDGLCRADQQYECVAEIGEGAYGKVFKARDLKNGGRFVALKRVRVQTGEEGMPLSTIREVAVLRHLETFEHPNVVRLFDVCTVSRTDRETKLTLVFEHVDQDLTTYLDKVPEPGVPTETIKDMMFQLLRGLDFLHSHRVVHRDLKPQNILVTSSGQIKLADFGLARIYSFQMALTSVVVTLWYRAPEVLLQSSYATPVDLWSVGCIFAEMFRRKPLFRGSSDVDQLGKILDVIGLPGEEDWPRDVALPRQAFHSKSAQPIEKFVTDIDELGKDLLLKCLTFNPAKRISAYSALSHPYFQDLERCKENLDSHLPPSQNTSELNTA
CDK6/CyclinD3, sequence (P30281 whole entry partner, species assumed): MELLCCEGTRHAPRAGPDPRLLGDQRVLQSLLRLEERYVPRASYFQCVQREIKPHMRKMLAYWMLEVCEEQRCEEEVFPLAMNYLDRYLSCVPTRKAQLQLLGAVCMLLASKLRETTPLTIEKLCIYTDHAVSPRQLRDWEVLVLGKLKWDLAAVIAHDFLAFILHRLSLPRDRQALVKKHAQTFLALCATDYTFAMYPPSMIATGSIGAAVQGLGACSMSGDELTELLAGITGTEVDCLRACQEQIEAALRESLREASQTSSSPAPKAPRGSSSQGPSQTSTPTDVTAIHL
CDK4/CycD1, sequence (P11802 whole entry, species assumed): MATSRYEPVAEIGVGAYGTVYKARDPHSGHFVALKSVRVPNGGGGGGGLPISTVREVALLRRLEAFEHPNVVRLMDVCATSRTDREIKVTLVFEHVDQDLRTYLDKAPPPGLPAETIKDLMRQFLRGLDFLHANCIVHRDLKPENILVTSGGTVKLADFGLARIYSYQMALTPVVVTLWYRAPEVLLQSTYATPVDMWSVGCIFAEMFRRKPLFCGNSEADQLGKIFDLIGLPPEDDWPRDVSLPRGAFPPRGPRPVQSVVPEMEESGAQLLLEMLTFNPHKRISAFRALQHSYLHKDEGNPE
CDK4/CycD1, sequence (P24385 whole entry partner, species assumed): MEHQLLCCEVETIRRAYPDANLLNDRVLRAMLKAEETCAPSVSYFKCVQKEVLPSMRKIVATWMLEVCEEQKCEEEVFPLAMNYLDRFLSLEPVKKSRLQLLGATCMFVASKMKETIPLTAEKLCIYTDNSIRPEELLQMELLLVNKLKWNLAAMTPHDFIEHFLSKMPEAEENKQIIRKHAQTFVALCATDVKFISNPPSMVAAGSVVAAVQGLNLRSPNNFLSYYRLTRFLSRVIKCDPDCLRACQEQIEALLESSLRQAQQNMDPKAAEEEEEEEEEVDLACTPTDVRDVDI
Experimental for CDK4/CycD1: The tested compounds were subjected to CDK4 and CDK6 kinase IC50 values test.
• (1) Preparing a 1.3× enzyme solution containing enzyme, substrate and cofactor as shown below. • (2) Adding 15 μL of 1.3× enzyme solution to each well and incubating for 30 min at room temperature. • (3) Starting the reaction by adding 5 μL of 4×ATP solution, with each test well containing the listed components and a final volume of 20 μL. • (4) Incubating for 150 minutes and then stopping the reaction by adding 75 μL of buffer (containing 0.5 M EDTA). • (5) Reading the data from each test well by EZ for analysis.
Percentage inhibition was calculated using the read conversion ratio (CR) according to the formula below:
The wells treated with DMSO were used as positive control (positive control) and the wells without enzyme were used as negative control (negative control).

Regarding `CC(C)N1CCOc2c(F)cc(-c3nc(N[C@@H]4CCOC[C@H]4O)ncc3Cl)cc21` [TA-1], the half-inhibitory concentration (IC50) is no more than 500 nM in data set [1]; no more than 500 nM in data set [2]; no more than 500 nM in data set [3]; 23.6 nM at CDK6/CyclinD3; 0.849 nM at CDK4/CycD1.
Regarding `CC(C)N1C(=O)COc2c(F)cc(-c3nc(N[C@@H]4CCOC[C@H]4O)ncc3Cl)cc21` [TA-2, 6-(5-chloro-2-(((3S,4R)-3-hydroxytetrahydro-2H-pyran-4-yl)amino)pyrimidin-4-yl)-8-fluoro-4-isopropyl-2H-benzo[b][1,4]oxazin-3(4H)-one], the IC50 was no more than 500 nM in data set [1]; 500 to 2000 nM in data set [2]; no more than 500 nM in data set [3]; 109 nM on CDK6/CyclinD3; 42.2 nM at CDK4/CycD1.
As for `CC(C)N1CCOc2c(F)cc(-c3ccnc(N[C@@H]4CCOC[C@H]4O)n3)cc21` [TA-4, (3S,4R)-4-((4-(8-fluoro-4-isopropyl-3,4-dihydro-2H-benzo[b][1,4]oxazin-6-yl)pyrimidin-2-yl)amino)tetrahydro-2H-pyran-3-ol], the IC50 in data set [1] was no more than 500 nM; in data set [2] it was no more than 500 nM; in data set [3] it was no more than 500 nM; at CDK6/CyclinD3, 116 nM; on CDK4/CycD1 it was 10.4 nM.
On to `CC(C)N1CCOc2c(F)cc(-c3nc(N[C@@H]4CCOC[C@H]4O)ncc3F)cc21` [TA-5, (3S,4R)-4-((5-fluoro-4-(8-fluoro-4-isopropyl-3,4-dihydro-2H-benzo[b][1,4]oxazin-6-yl)pyrimidin-2-yl)amino)tetrahydro-2H-pyran-3-ol], for which the 50% inhibitory concentration (IC50) in data set [1] was no more than 500 nM; in data set [2], no more than 500 nM; in data set [3] it was no more than 500 nM; at CDK6/CyclinD3 it was 30.2 nM; on CDK4/CycD1, 3.11 nM.
`CC(C)N1CCOc2c(F)cc(-c3nc(NC4CCN(S(C)(=O)=O)CC4)ncc3F)cc21` [TA-6, 5-fluoro-4-(8-fluoro-4-isopropyl-3,4-dihydro-2H-benzo[b][1,4]oxazin-6-yl)-N-(1-(methylsulfonyl)piperidin-4-yl)pyrimidin-2-amine]: the IC50 in data set [1] is no more than 500 nM; in data set [2], no more than 500 nM; in data set [3], no more than 500 nM; at CDK6/CyclinD3, 13.7 nM; at CDK4/CycD1, 4.29 nM.
Consider `CC(C)N1CCOc2c(F)cc(-c3nc(NC4CCCC(C(=O)N(C)C)C4)ncc3F)cc21` (stereo not drawn) [TA-7, 3-((5-fluoro-4-(8-fluoro-4-isopropyl-3,4-dihydro-2H-benzo[b][1,4]oxazin-6-yl)pyrimidin-2-yl)amino)-N,N-dimethylcyclohexane-1-carboxamide], for which the IC50 was no more than 500 nM in data set [1]; no more than 500 nM in data set [2]; no more than 500 nM in data set [3]; greater than 500 nM on CDK6/CyclinD3; 17.7 nM on CDK4/CycD1.
Take `CC(C)N1CCOc2c(F)cc(-c3nc(NC4CCOCC4)ncc3F)cc21` [TA-8, 5-fluoro-4-(8-fluoro-4-isopropyl-3,4-dihydro-2H-benzo[b][1,4]oxazin-6-yl)-N-(tetrahydro-2H-pyran-4-yl)pyrimidin-2-amine]: the concentration for half-maximal inhibition (IC50) on CDK6/CyclinD3 stood at 67.3 nM; at CDK4/CycD1, 21.4 nM.
On the same counts, the results for `COC(=O)N1CCC[C@@H](Nc2ncc(Cl)c(-c3cc(F)c4c(c3)N(C(C)C)CCO4)n2)C1` [TA-10, methyl (R)-3-((5-chloro-4-(8-fluoro-4-isopropyl-3,4-dihydro-2H-benzo[b][1,4]oxazin-6-yl)pyrimidin-2-yl)amino)piperidine-1-carboxylate] are 206 nM and 57.6 nM.
On to `CC(C)N1CCOc2c(F)cc(-c3nc(NC4CCN(S(C)(=O)=O)CC4)ncc3Cl)cc21` [TA-11, 5-chloro-4-(8-fluoro-4-isopropyl-3,4-dihydro-2H-benzo[b][1,4]oxazin-6-yl)-N-(1-(methylsulfonyl)piperidin-4-yl)pyrimidin-2-amine], for which the IC50 in data set [1] was no more than 500 nM; in data set [2] it was no more than 500 nM; in data set [3] it was no more than 500 nM; at CDK6/CyclinD3 it was 24.7 nM; at CDK4/CycD1, 7.19 nM.
For the molecule `CC(C)N1CCOc2c(F)cc(-c3nc(NC4CCCC(C(=O)N(C)C)C4)ncc3Cl)cc21` (stereo not drawn) [TA-14, 3-((5-chloro-4-(8-fluoro-4-isopropyl-3,4-dihydro-2H-benzo[b][1,4]oxazin-6-yl)pyrimidin-2-yl)amino)-N,N-dimethylcyclohexane-1-carboxamide], the IC50 was greater than 500 nM on CDK6/CyclinD3 and 69.4 nM at CDK4/CycD1.
Take `CC(=O)N1CCC[C@@H](Nc2ncc(Cl)c(-c3cc(F)c4c(c3)N(C(C)C)CCO4)n2)C1` [TA-16, (R)-1-(3-((5-chloro-4-(8-fluoro-4-isopropyl-3,4-dihydro-2H-benzo[b][1,4]oxazin-6-yl)pyrimidin-2-yl)amino)piperidin-1-yl)ethan-1-one]: the half-maximal inhibitory concentration (IC50) at CDK6/CyclinD3 came to 99.1 nM; at CDK4/CycD1, 15.3 nM.
As for `CC(C)N1CCOc2c(F)cc(-c3nc(N[C@@H]4CCC[C@H](NS(C)(=O)=O)C4)ncc3Cl)cc21` [TA-17], the half-inhibitory concentration (IC50) on CDK6/CyclinD3 stood at 83.4 nM; on CDK4/CycD1 it was 22.7 nM.
With `CC(C)C(=O)N(c1cc(F)cc(-c2nc(N[C@@H]3CCOC[C@H]3O)ncc2Cl)c1)C(C)C` [TA-20], the figures for the IC50 at CDK6/CyclinD3 and at CDK4/CycD1 were 319 nM and 108 nM, respectively.
Regarding `CC(C)c1c(C(C)(C)O)nc2ccc(-c3nc(N[C@@H]4CCOC[C@H]4O)ncc3Cl)cn12` [TA-25, (3S,4R)-4-((5-chloro-4-(2-(2-hydroxypropan-2-yl)-3-isopropylimidazo[1,2-a]pyridin-6-yl)pyrimidin-2-yl)amino)tetrahydro-2H-pyran-3-ol], in data set [4] (Sprague-Dawley (SD), rat, po), the area under the curve AUC(0-t) is 4470 ng·h/mL, the Cmax turned out to be 611 ng/mL and the Tmax is 3.33 h. In addition, in data set [4], the “HL—” value is 1.69 h.
As for `CC(C)c1c(C(C)(C)O)nc2c(F)cc(-c3nc(N[C@@H]4CCOC[C@H]4O)ncc3Cl)cn12` [TA-27, (3S,4R)-4-((5-chloro-4-(8-fluoro-2-(2-hydroxypropan-2-yl)-3-isopropylimidazo[1,2-a]pyridin-6-yl)pyrimidin-2-yl)amino)tetrahydro-2H-pyran-3-ol], the values for the half-inhibitory concentration (IC50) on CDK6/CyclinD3 and on CDK4/CycD1 were 203 nM and 21.8 nM, respectively.
For `COc1ncc(-c2nc(N[C@@H]3CCOC[C@H]3O)ncc2F)c2c1CCC2` [TA-34, (3S,4R)-4-((5-fluoro-4-(1-methoxy-6,7-dihydro-5H-cyclopenta[c]pyridin-4-yl)pyrimidin-2-yl)amino)tetrahydro-2H-pyran-3-ol] the same measures were 2580 nM and 729 nM.
Consider `CN1CCCn2c1nc1c(F)cc(-c3nc(NC4CCN(S(C)(=O)=O)CC4)ncc3Cl)cc12` [TB-43, 5-chloro-4-(9-fluoro-1-methyl-1,2,3,4-tetrahydrobenzo[4,5]imidazo[1,2-a]pyrimidin-7-yl)-N-(1-(methylsulfonyl)piperidin-4-yl)pyrimidin-2-amine], for which the IC50 is no more than 500 nM in data set [1]; no more than 500 nM in data set [2]; no more than 500 nM in data set [3]; 200 nM at CDK6/CyclinD3; 18.6 nM at CDK4/CycD1.
Regarding `COC(=O)N1CCC(Nc2ncc(Cl)c(-c3cc(F)c4nc5n(c4c3)CCCN5C)n2)CC1` [TB-93, methyl 4-((5-chloro-4-(9-fluoro-1-methyl-1,2,3,4-tetrahydrobenzo[4,5]imidazo[1,2-a]pyrimidin-7-yl)pyrimidin-2-yl)amino)piperidine-1-carboxylate], the IC50 in data set [1] is no more than 500 nM; in data set [2], 500 to 2000 nM; in data set [3] it was no more than 500 nM; on CDK6/CyclinD3, greater than 500 nM.
As to `C[C@H]1CCN(C)c2nc3c(F)cc(-c4nc(Nc5ccncc5)ncc4Cl)cc3n21` [TB-137, (S)-5-chloro-4-(9-fluoro-1,4-dimethyl-1,2,3,4-tetrahydrobenzo[4,5]imidazo[1,2-a]pyrimidin-7-yl)-N-(pyridin-4-yl)pyrimidin-2-amine], the 50% inhibitory concentration (IC50) was no more than 500 nM in data set [1]; no more than 500 nM in data set [2]; no more than 500 nM in data set [3]; 95.2 nM at CDK6/CyclinD3; 12.7 nM on CDK4/CycD1.
